The values that follow come from patent US9073892B2, “Indazolyl triazol derivatives” (Merck Serono S.A., priority 2010, dated 2015).

Some results are limits rather than exact numbers.

Experiment [1] concerns IL1β-induced IL8 release in THP1 cells. The experiment in a line: IRAK IL8 secretion functional assay. Format: cell-based. The note with it: Homo sapiens; THP-1 cells, IL1β 100 ng/ml overnight, IL8 by HTRF; read-out: IC50, Secretion THP-1/IL-β induced IL8 release. From the text: IRAK IL8 Secretion Functional Assay:
THP1 cells are human monocytes derived from acute monocytic leukemia. IL1β receptor expressed on the surface membrane of THP1 cells induced IL8 release. IRAKs are kinase signaling downstream of TLRs and TNF, IL-18, IL-33 and IL-1 receptors.
In cells, IRAK4 is upstream of IRAK1.
The Human IL8 Kit, provided by CysBio International based in Bagnols/Cèze FR, allows for the quantitative determination of IL-8 in cell-culture supernatants.
Anti-cytokine IL8 antibodies are respectively labeled with europium Cryptate and XL665. Upon their binding to IL-8 molecules, the two antibodies come into close proximity, allowing FRET (Fluorescence Resonance Energy Transfer) to occur. This FRET increases proportionally to IL-8 concentrations and be converted in IL8 pg amounts.
THP-1 cells are seeded on Day 1 in 384 well plate with RPMI 1640 at a density of 30 000 cells/well. Compounds 4×/2% DMSO (range of concentrations from 20 μM to 1 nM) and IL1β 4× at 100 ng/ml final are added to cells overnight at 37° C., 5% CO2. Measurement of IL-8 secretion is done by mixing on Day2 10 μl of supernatant with 10 μl of a mix solution of europium Cryptate and XL665 (v:v) as described by supplier.
HTRF (homogeneous time resolved fluorescence) signal is measured after 3 hours incubation time at 30° C. with a BMG Pherastar reader or equivalent.

The test system of the next experiment is T1, IRAK1/4 human.
T1 construct: fused on or other part: His tag and TEV cleavage site at the N-terminus
The experiment can be described thus: IRAK1/4 phosphorylation IC50 (enzymatic assay, table 2). Format: biochemical. Conditions: human IRAK1/4 phosphorylation. In a few lines: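 In 384-well plates, reactions in 50 mM Hepes pH7.0 buffer with MgCl2, DTT, EGTA and BSA combined ATP, compounds in DMSO at 20 µM to 1 nM, and either His-TEV-tagged human IRAK-1 or His-TEV-tagged human IRAK-4 plus STK1-biotin peptide. They ran for 2 or 3 hours alongside 2% DMSO controls. Each value is an IC50 for inhibition.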

In the case of `O=C(c1ccc(-n2cc(-c3n[nH]c4ccc(CO)cc34)nn2)cc1)N1CCOCC1` [Example 93, (3-{1-[4(morpholin-4-ylcarbonyl)phenyl]-1H-1,2,3-triazol-4-yl}-1H-indazol-5-yl)methanol], the IC50 in experiment [1] fell in the range of 1 to 5 µM; in the experiment on IRAK1/4 human, 0.1 to 1 µM.

In the case of `O=C(c1ccc(-n2cc(-c3n[nH]c4ccccc34)nn2)cc1F)N1CCOCC1` [Example 81, 3-{1-[3-fluoro-4-(morpholin-4-ylcarbonyl)phenyl]-1H-1,2,3-triazol-4-yl}-1H-indazole], the IC50 (in experiment [1]; in the experiment on IRAK1/4 human) was 0.1 to 1 µM in each case.

Turning to `O=C(Cc1cccc(-n2cc(-c3n[nH]c4ccccc34)nn2)c1)N1CCCC1` [Example 82, 3-{1-[3-(2-oxo-2-pyrrolidin-1-ylethyl)phenyl]-1H-1,2,3-triazol-4-yl}-1H-indazole], the IC50 (in experiment [1]; with IRAK1/4 human) was 1 to 5 µM each time.

`COCCNC(=O)c1ccc(-n2cc(-c3n[nH]c4ccccc34)nn2)cc1` [Example 50, 4-[4-(1H-indazol-3-yl)-1H-1,2,3-triazol-1-yl]-N-(2-methoxyethyl)benzamide]: the IC50 (in experiment [1]; in the experiment on IRAK1/4 human) was 0.1 to 1 µM throughout.

Consider `COCC1CCCN(C(=O)c2ccc(-n3cc(-c4n[nH]c5ccccc45)nn3)cc2)C1` (stereo not shown) [Example 118, 3-[1-(4-{[3-(methoxymethyl)piperidin-1-yl]carbonyl}phenyl)-1H-1,2,3-triazol-4-yl]-1H-indazole], for which the IC50 (in experiment [1]; in the experiment on IRAK1/4 human) was 0.1 to 1 µM in each case.

In the case of `CN1CCCC2(CCCN(C(=O)c3ccc(-n4cc(-c5n[nH]c6ccccc56)nn4)cc3)C2)C1` (stereo not shown) [Example 76, 2-{4-[4-(1H-indazol-3-yl)-1H-1,2,3-triazol-1-yl]benzoyl}-8-methyl-2,8-diazaspiro[5.5]undecane], the IC50 (in experiment [1]; in the experiment with IRAK1/4 human) was less than 0.1 µM in each case.

For `Cc1nccn1CC1CCCN(C(=O)c2ccc(-n3cc(-c4n[nH]c5ccccc45)nn3)cc2)C1` (stereo not shown) [Example 115, 3-{1-[4-({3-[(2-methyl-1H-imidazol-1-yl)methyl]piperidin-1-yl}carbonyl)phenyl]-1H-1,2,3-triazol-4-yl}-1H-indazole], the IC50 (in experiment [1]; in the experiment with IRAK1/4 human) was 0.1 to 1 µM each time.

Regarding `c1cc(CCN2CCCC2)cc(-n2cc(-c3n[nH]c4ccccc34)nn2)c1` [Example 83, 3-{1-[3-(2-pyrrolidin-1-ylethyl)phenyl]-1H-1,2,3-triazol-4-yl}-1H-indazole], the IC50 in experiment [1] was 0.1 to 1 µM; with IRAK1/4 human, 1 to 5 µM.

For the compound `O=C(c1ccc(-n2cc(-c3n[nH]c4ccccc34)nn2)cc1)N1CCCC(CN2CCOCC2)C1` (stereo not shown) [Example 74], the IC50 (in experiment [1]; with IRAK1/4 human) was 0.1 to 1 µM each time.

Regarding `CN1CCCN(C(=O)c2ccc(-n3cc(-c4n[nH]c5ccccc45)nn3)cc2)CC1` [Example 48, 3-(1-{4-[(4-methyl-1,4-diazepan-1-yl)carbonyl]phenyl}-1H-1,2,3-triazol-4-yl)-1H-indazole], the IC50 (in experiment [1]; in the experiment on IRAK1/4 human) was 0.1 to 1 µM in each case.

Regarding `O=C1CCCN1CC1CCCN(C(=O)c2ccc(-n3cc(-c4n[nH]c5ccccc45)nn3)cc2)C1` (stereo not shown) [Example 75, 1-[(1-{4-[4-(1H-indazol-3-yl)-1H-1,2,3-triazol-1-yl]benzoyl}piperidin-3-yl)methyl]pyrrolidin-2], the IC50 (in experiment [1]; with IRAK1/4 human) was 0.1 to 1 µM each time.

Consider `O=C(c1ccc(-n2cc(-c3n[nH]c4ccccc34)nn2)cc1)N1CCCCC1CO` (stereo not shown) [Example 100, (1-{4-[4-(1H-indazol-3-yl)-1H-1,2,3-triazol-1-yl]benzoyl}piperidin-2-yl)methanol], for which the IC50 (in experiment [1]; in the experiment on IRAK1/4 human) was 0.1 to 1 µM in each case.

`O=C(c1ccc(-n2cc(-c3n[nH]c4ccccc34)nn2)cc1)N1CCCCC1CCO` (stereo not shown) [Example 117, 2-(1-{4-[4-(1H-indazol-3-yl)-1H-1,2,3-triazol-1-yl]benzoyl}piperidin-2-yl)ethanol]: the IC50 (in experiment [1]; in the experiment on IRAK1/4 human) was 0.1 to 1 µM in each case.

Turning to `O=C(c1ccc(-n2cc(-c3n[nH]c4ccccc34)nn2)cc1C(F)(F)F)N1CCOCC1` [Example 101, 3-{1-[4-(morpholin-4-ylcarbonyl)-3-(trifluoromethyl)phenyl]-1H-1,2,3-triazol-4-yl}-1H-indazole], the IC50 lay in the range of 1 to 5 µM in experiment [1] and 0.1 to 1 µM in the experiment with IRAK1/4 human.

In the case of `O=C(c1ccc(-n2cc(-c3n[nH]c4ccccc34)nn2)cc1)N1CCCC1` [Example 35, 3-{1-[4-(pyrrolidin-1-ylcarbonyl)phenyl]-1H-1,2,3-triazol-4-yl}-1H-indazole], the IC50 in experiment [1] is 0.1 to 1 µM; in the experiment with IRAK1/4 human, less than 0.1 µM.

For the compound `CN1CCC(NC(=O)c2ccc(-n3cc(-c4n[nH]c5ccccc45)nn3)cc2)C1=O` (stereo not shown) [Example 31, 4-[4-(1H-indazol-3-yl)-1H-1,2,3-triazol-1-yl]-N-(1-methyl-2-oxopyrrolidin-3-yl)benzamide], the IC50 (in experiment [1]; in the experiment with IRAK1/4 human) was 0.1 to 1 µM throughout.

For `O=C(c1ccc(-n2cc(-c3n[nH]c4ccc(C5CCNCC5)cc34)nn2)cc1)N1CCOCC1` [Example 84, 3-{1-[4-(morpholin-4-ylcarbonyl)phenyl]-1H-1,2,3-triazol-4-yl}-5-piperidin-4-yl-1H-indazole], the values for the IC50 (in experiment [1]; in the experiment with IRAK1/4 human) were 1 to 5 µM and less than 0.1 µM, respectively.

In the case of `O=C(c1ccc(-n2cc(-c3n[nH]c4ccccc34)nn2)cc1)N1CCC(O)C1` (stereo not shown) [Example 26, 1-{4-[4-(1H-indazol-3-yl)-1H-1,2,3-triazol-1-yl]benzoyl}pyrrolidin-3-ol], the IC50 (in experiment [1]; in the experiment on IRAK1/4 human) was 0.1 to 1 µM throughout.

For `O=C(c1ccc(-n2cc(-c3n[nH]c4ccccc34)nn2)cc1)N1CCC[C@H]1CO` [Example 99], the IC50 (in experiment [1]; with IRAK1/4 human) was 0.1 to 1 µM throughout.

On to `CN(CCc1ccncc1)C(=O)c1ccc(-n2cc(-c3n[nH]c4ccccc34)nn2)cc1` [Example 43, 4-[4-(1H-indazol-3-yl)-1H-1,2,3-triazol-1-yl]-N-methyl-N-(2-pyridin-4-ylethyl)benzamide], for which the IC50 (in experiment [1]; with IRAK1/4 human) was 0.1 to 1 µM throughout.

On to `COC1CCN(C(=O)c2ccc(-n3cc(-c4n[nH]c5ccccc45)nn3)cc2)CC1` [Example 109, 3-(1-{4-[(4-methoxypiperidin-1-yl)carbonyl]phenyl}-1H-1,2,3-triazol-4-yl)-1H-indazole], for which the IC50 (in experiment [1]; in the experiment with IRAK1/4 human) was 0.1 to 1 µM throughout.

`O=C(c1ccc(-n2cc(-c3n[nH]c4ccc(Cn5ncccc5=O)cc34)nn2)cc1)N1CCOCC1` [Example 95, 2-[(3-{1-[4-(morpholin-4-ylcarbonyl)phenyl]-1H-1,2,3-triazol-4-yl}-1H-indazol-5-yl)methyl]pyridazin-3(2H)-one]: the IC50 in experiment [1] is 1 to 5 µM; in the experiment on IRAK1/4 human, 0.1 to 1 µM.

In the case of `CCN(CC)CCCNC(=O)c1ccc(-n2cc(-c3n[nH]c4ccccc34)nn2)cc1` [Example 42, N-[3-(diethylamino)propyl]-4-[4-(1H-indazol-3-yl)-1H-1,2,3-triazol-1-yl]benzamide], the IC50 (in experiment [1]; with IRAK1/4 human) was 0.1 to 1 µM each time.

For `O=C(c1ccc(-n2cc(-c3n[nH]c4ccc(C5=CCN(Cc6ccccc6)CC5)cc34)nn2)cc1)N1CCOCC1` [Example 106, 5-(1-benzyl-1,2,3,6-tetrahydropyridin-4-yl)-3-{1-[4-(morpholin-4-ylcarbonyl)phenyl]-1H-1,2,3-triazol-4-yl}-1H-indazole], the figures for the IC50 (in experiment [1]; in the experiment with IRAK1/4 human) were 1 to 5 µM and 0.1 to 1 µM, respectively.

For `Cc1ccc2[nH]nc(-c3cn(-c4ccc(CN5CCCC5)cc4)nn3)c2c1` [Example 6, 5-methyl-3-{1-[4-(pyrrolidin-1-ylmethyl)phenyl]-1H-1,2,3-triazol-4-yl}-1H-indazole], the IC50 (in experiment [1]; in the experiment with IRAK1/4 human) was 0.1 to 1 µM each time.

With `c1cc(CCCN2CCCC2)cc(-n2cc(-c3n[nH]c4ccccc34)nn2)c1` [Example 88, 3-{1-[3-(3-pyrrolidin-1-ylpropyl)phenyl]-1H-1,2,3-triazol-4-yl}-1H-indazole], the IC50 lay in the range of 0.1 to 1 µM in experiment [1] and 1 to 5 µM with IRAK1/4 human.

For the compound `O=C(NCc1ccc(-n2cc(-c3n[nH]c4ccccc34)nn2)cc1)c1ccncc1` [Example 15, N-{4-[4(1H-indazol-3-yl]-1H-1,2,3-triazol-1-yl)benzyl}isonicotinamide], the IC50 in experiment [1] lay in the range of 0.1 to 1 µM; in the experiment on IRAK1/4 human, 1 to 5 µM.

In the case of `Cc1ccc(=O)n(Cc2ccc3[nH]nc(-c4cn(-c5ccc(C(=O)N6CCOCC6)cc5)nn4)c3c2)n1` [Example 110], the IC50 in experiment [1] was in the range of 1 to 5 µM; in the experiment on IRAK1/4 human, 0.1 to 1 µM.

`Cn1cc(-c2ccc3[nH]nc(-c4cn(-c5ccc(C(=O)N6CCOCC6)cc5)nn4)c3c2)cn1` [Example 123, 5-(1-methyl-1H-pyrazol-4-yl)-3-{1-[4-(morpholin-4-ylcarbonyl)phenyl]-1H-1,2,3-triazol-4-yl}-1H-indazole]: the IC50 (in experiment [1]; in the experiment on IRAK1/4 human) was less than 0.1 µM in each case.
